Key:
Type in all cases: cell-based
[1] = molecular target: Hypoxia-inducible factor 1-alpha (Homo sapiens, UniProt Q16665); test: Inhibition of hypoxia-induced HIF1alpha transcriptional activity in human Hep3B cells co-transfected with luciferase reporter plasmid containing six copies of HREs and pRL-CMV vector assessed as reduction in luciferase activity incubated for 24 hrs under hypoxic condition by HRE-dependent dual luciferase reporter gene assay
Hep 3B2 [2] = test: Cytotoxicity against human Hep3B cells assessed as reduction in cell viability incubated for 24 hrs under normaxic condition by MTT assay
Hep 3B2 [3] = test: Cytotoxicity against human Hep3B cells assessed as reduction in cell viability at 30 uM incubated for 24 hrs in presence of 20% O2 by MTT assay; details: hep 3b2, 24 h

For `CC1(C)CCC[C@](C)([C@H]2CC[C@]3(C)[C@@H]2[C@H](OC(=O)Cn2nnnc2-c2ccccc2)C[C@@H]2[C@@]4(C)CCC(=O)C(C)(C)[C@@H]4CC[C@]23C)O1`, the IC50 [1] was > 100 µM and the IC50 (Hep 3B2 [2]) was > 100 µM.
With `CC1(C)CCC[C@](C)([C@H]2CC[C@]3(C)[C@@H]2[C@H](OC(=O)Cn2nnnc2-c2ccc(Cl)cc2)C[C@@H]2[C@@]4(C)CCC(=O)C(C)(C)[C@@H]4CC[C@]23C)O1` the IC50 [1] was 12.4 µM and the IC50 (Hep 3B2 [2]) was 42.9 µM.
Work on `CC1(C)CCC[C@](C)([C@H]2CC[C@]3(C)[C@@H]2[C@H](O)C[C@@H]2[C@@]4(C)CC(=C\c5ccc(F)cc5)/C(=N\NC(N)=S)C(C)(C)[C@@H]4CC[C@]23C)O1` yielded an IC50 [1] of 9 µM and an IC50 (Hep 3B2 [2]) of 24.1 µM.
In the case of `COc1ccc(-c2nnnn2CC(=O)O[C@@H]2C[C@@H]3[C@@]4(C)CCC(=O)C(C)(C)[C@@H]4CC[C@@]3(C)[C@]3(C)CC[C@H]([C@@]4(C)CCCC(C)(C)O4)[C@@H]23)cc1`, the IC50 [1] is reported as > 100 µM and the IC50 (Hep 3B2 [2]) is reported as > 100 µM.
For `Cc1ccc(/C=C2\C[C@]3(C)[C@H]4C[C@@H](O)[C@@H]5[C@@H]([C@@]6(C)CCCC(C)(C)O6)CC[C@@]5(C)[C@]4(C)CC[C@H]3C(C)(C)\C2=N\NC(N)=O)cc1`, the IC50 [1] was 9.8 µM and the IC50 (Hep 3B2 [2]) was 4.1 µM.
In the case of `CC1(C)CCC[C@](C)([C@H]2CC[C@]3(C)[C@@H]2[C@H](O)C[C@@H]2[C@@]4(C)CC(=C\c5ccccc5F)/C(=N\NC(N)=O)C(C)(C)[C@@H]4CC[C@]23C)O1`, the IC50 [1] is reported as 5.9 µM and the IC50 (Hep 3B2 [2]) is reported as 5.6 µM.
`CC1(C)CCC[C@](C)([C@H]2CC[C@]3(C)[C@@H]2[C@H](O)C[C@@H]2[C@@]4(C)CC(=C\c5ccc(F)cc5)/C(=N\NC(N)=O)C(C)(C)[C@@H]4CC[C@]23C)O1` was tested, and the IC50 [1] was 11.7 µM and the IC50 (Hep 3B2 [2]) was > 100 µM.
With `CC1(C)CCC[C@](C)([C@H]2CC[C@]3(C)[C@@H]2[C@H](O)C[C@@H]2[C@@]4(C)CC/C(=N\Nc5cccc(F)c5)C(C)(C)[C@@H]4CC[C@]23C)O1` the IC50 [1] was 67 µM and the IC50 (Hep 3B2 [2]) was > 100 µM.
In the case of `CC1(C)CCC[C@](C)([C@H]2CC[C@]3(C)[C@@H]2[C@H](O)C[C@@H]2[C@@]4(C)CC(=C\c5cccc(F)c5)/C(=N\NC(N)=O)C(C)(C)[C@@H]4CC[C@]23C)O1`, the IC50 [1] is reported as 3.5 µM and the IC50 (Hep 3B2 [2]) is reported as 5.2 µM.
In the case of `CC1(C)CCC[C@](C)([C@H]2CC[C@]3(C)[C@@H]2[C@H](O)C[C@@H]2[C@@]4(C)CC(=C\c5ccc(Cl)cc5)/C(=N\NC(N)=O)C(C)(C)[C@@H]4CC[C@]23C)O1`, the IC50 [1] is reported as 5.5 µM and the IC50 (Hep 3B2 [2]) is reported as 11.3 µM.
`CC1(C)CCC[C@](C)([C@H]2CC[C@]3(C)[C@@H]2[C@H](O)C[C@@H]2[C@@]4(C)CC/C(=N\Nc5ccc(Cl)cc5)C(C)(C)[C@@H]4CC[C@]23C)O1` was tested, and the IC50 [1] was 26 µM and the IC50 (Hep 3B2 [2]) was > 100 µM.
`CC1(C)CCC[C@](C)([C@H]2CC[C@]3(C)[C@@H]2[C@H](O)C[C@@H]2[C@@]4(C)CC/C(=N\Nc5ccccc5F)C(C)(C)[C@@H]4CC[C@]23C)O1` was tested, and the IC50 [1] was 10.1 µM and the IC50 (Hep 3B2 [2]) was > 100 µM.
In the case of `CC1(C)CCC[C@](C)([C@H]2CC[C@]3(C)[C@@H]2[C@H](O)C[C@@H]2[C@@]4(C)CC/C(=N\Nc5cccc(Cl)c5)C(C)(C)[C@@H]4CC[C@]23C)O1`, the IC50 [1] is reported as 36.7 µM and the IC50 (Hep 3B2 [2]) is reported as > 100 µM.
For `Cc1cccc(N/N=C2\CC[C@]3(C)[C@H]4C[C@@H](O)[C@@H]5[C@@H]([C@@]6(C)CCCC(C)(C)O6)CC[C@@]5(C)[C@]4(C)CC[C@H]3C2(C)C)c1`, the IC50 [1] was 56.5 µM and the IC50 (Hep 3B2 [2]) was > 100 µM.
In the case of `CC1(C)CCC[C@](C)([C@H]2CC[C@]3(C)[C@@H]2[C@H](O)C[C@@H]2[C@@]4(C)CC(=C\c5ccc(O)cc5)/C(=N\NC(=N)N)C(C)(C)[C@@H]4CC[C@]23C)O1`, the IC50 [1] is reported as 6.2 µM and the IC50 (Hep 3B2 [2]) is reported as 6.3 µM.
In the case of `CC1(C)CCC[C@](C)([C@H]2CC[C@]3(C)[C@@H]2[C@H](O)C[C@@H]2[C@@]4(C)CC(=C\c5ccc(Cl)cc5)/C(=N\NC(N)=S)C(C)(C)[C@@H]4CC[C@]23C)O1`, the IC50 [1] is reported as > 100 µM and the IC50 (Hep 3B2 [2]) is reported as > 100 µM.
`Cc1ccccc1N/N=C1\CC[C@]2(C)[C@H]3C[C@@H](O)[C@@H]4[C@@H]([C@@]5(C)CCCC(C)(C)O5)CC[C@@]4(C)[C@]3(C)CC[C@H]2C1(C)C` was tested, and the IC50 [1] was 24.9 µM and the IC50 (Hep 3B2 [2]) was > 100 µM.
With `CC1(C)CCC[C@](C)([C@H]2CC[C@]3(C)[C@@H]2[C@H](OC(=O)CNc2cccc(-c4nnn[nH]4)c2)C[C@@H]2[C@@]4(C)CCC(=O)C(C)(C)[C@@H]4CC[C@]23C)O1` the IC50 [1] was > 100 µM and the IC50 (Hep 3B2 [2]) was > 100 µM.
With `CC1(C)CCC[C@](C)([C@H]2CC[C@]3(C)[C@@H]2[C@H](O)C[C@@H]2[C@@]4(C)CC(=C\c5ccc(F)cc5)/C(=N\NC(=N)N)C(C)(C)[C@@H]4CC[C@]23C)O1` the IC50 [1] was 4.8 µM and the IC50 (Hep 3B2 [2]) was > 100 µM.
For `Cc1ccc(N/N=C2\CC[C@]3(C)[C@H]4C[C@@H](O)[C@@H]5[C@@H]([C@@]6(C)CCCC(C)(C)O6)CC[C@@]5(C)[C@]4(C)CC[C@H]3C2(C)C)cc1`, the IC50 [1] was 7.1 µM and the IC50 (Hep 3B2 [2]) was > 100 µM.
Compound `Cc1ccc(/C=C2\C[C@]3(C)[C@H]4C[C@@H](O)[C@@H]5[C@@H]([C@@]6(C)CCCC(C)(C)O6)CC[C@@]5(C)[C@]4(C)CC[C@H]3C(C)(C)\C2=N\NC(N)=S)cc1` has an IC50 [1] of 6.1 µM and an IC50 (Hep 3B2 [2]) of 43.1 µM.
In the case of `CC1(C)CCC[C@](C)([C@H]2CC[C@]3(C)[C@@H]2[C@H](O)C[C@@H]2[C@@]4(C)CC/C(=N\Nc5ccc(Cl)cc5Cl)C(C)(C)[C@@H]4CC[C@]23C)O1`, the Activity (Hep 3B2 [3]) is reported as “Non-Toxic”, the IC50 [1] is reported as 3.7 µM and the inhibition [1] is reported as “Dose-dependent effect”. The IC50 (Hep 3B2 [2]) was > 100 µM.
With `CC1(C)CCC[C@](C)([C@H]2CC[C@]3(C)[C@@H]2[C@H](O)C[C@@H]2[C@@]4(C)CC/C(=N\Nc5ccccc5Cl)C(C)(C)[C@@H]4CC[C@]23C)O1` the IC50 [1] was > 100 µM and the IC50 (Hep 3B2 [2]) was > 100 µM.
With `COc1ccc(/C=C2\C[C@]3(C)[C@H]4C[C@@H](O)[C@@H]5[C@@H]([C@@]6(C)CCCC(C)(C)O6)CC[C@@]5(C)[C@]4(C)CC[C@H]3C(C)(C)\C2=N\NC(=N)N)cc1` the IC50 [1] was 5.8 µM and the IC50 (Hep 3B2 [2]) was 6.1 µM.
In the case of `CC1(C)CCC[C@](C)([C@H]2CC[C@]3(C)[C@@H]2[C@H](O)C[C@@H]2[C@@]4(C)CC/C(=N\Nc5ccc(F)cc5)C(C)(C)[C@@H]4CC[C@]23C)O1`, the IC50 [1] is reported as 21.4 µM and the IC50 (Hep 3B2 [2]) is reported as > 100 µM.
For `CC1(C)CCC[C@](C)([C@H]2CC[C@]3(C)[C@@H]2[C@H](OC(=O)Cn2nnnc2-c2ccc4c(c2)OCO4)C[C@@H]2[C@@]4(C)CCC(=O)C(C)(C)[C@@H]4CC[C@]23C)O1`, the IC50 [1] was 40.9 µM and the IC50 (Hep 3B2 [2]) was > 100 µM.
`CC1(C)CCC[C@](C)([C@H]2CC[C@]3(C)[C@@H]2[C@H](O)C[C@@H]2[C@@]4(C)CC/C(=N\Nc5ccc(F)cc5F)C(C)(C)[C@@H]4CC[C@]23C)O1` was tested, and the IC50 [1] was 12.8 µM and the IC50 (Hep 3B2 [2]) was > 100 µM.
Work on `CC1(C)CCC[C@](C)([C@H]2CC[C@]3(C)[C@@H]2[C@H](O)C[C@@H]2[C@@]4(C)CC[C@H](O)C(C)(C)[C@@H]4CC[C@]23C)O1` [PANAXADIOL] yielded an IC50 [1] of 9.1 µM and an IC50 (Hep 3B2 [2]) of 31.7 µM.
With `CC1(C)CCC[C@](C)([C@H]2CC[C@]3(C)[C@@H]2[C@H](OC(=O)CNc2nnn[nH]2)C[C@@H]2[C@@]4(C)CCC(=O)C(C)(C)[C@@H]4CC[C@]23C)O1` the IC50 [1] was 36.2 µM and the IC50 (Hep 3B2 [2]) was > 100 µM.
In the case of `Cc1ccc(/C=C2\C[C@]3(C)[C@H]4C[C@@H](O)[C@@H]5[C@@H]([C@@]6(C)CCCC(C)(C)O6)CC[C@@]5(C)[C@]4(C)CC[C@H]3C(C)(C)\C2=N\NC(=N)N)cc1`, the IC50 [1] is reported as 37.7 µM and the IC50 (Hep 3B2 [2]) is reported as 11.3 µM.
`CC1(C)CCC[C@](C)([C@H]2CC[C@]3(C)[C@@H]2[C@H](O)C[C@@H]2[C@@]4(C)CC/C(=N\Nc5cccc([N+](=O)[O-])c5)C(C)(C)[C@@H]4CC[C@]23C)O1` was tested, and the IC50 [1] was 61.2 µM and the IC50 (Hep 3B2 [2]) was > 100 µM.

Source: ChEMBL document CHEMBL4699611, “Synthesis and evaluation of HIF-1α inhibitory activities of novel panaxadiol derivatives” (Bioorg Med Chem Lett, 2020)
